Experimental data published in patent US6861235B1, “Method for controlling target microorganism” (priority 1998, dated 2005).
“Also recorded” adds a separate entry of the source. Like-named read-outs stand apart in the source and are kept apart here. Peptide text beside a SMILES is read from it.

Columns and labels:
NKR strain [1] = assay type: cell-based, Burkholderia sp. N16-1 strain
[2] = tested on: total cell count in the soil; assay type: cell-based
NKR strain [3] = assay type: cell-based, Burkholderia sp. N16-1 strain; conditions: for cell count of the NKR strain in the soil vs no addition: pH-adjusted SB soil
[4] = tested on: Ralstonia solanacearum OE1-1 strain; assay type: cell-based; conditions: for cell count of the OE1-1 strain vs 0 ppm: Example 9; for control of R. solanacearum OE1-1 strain: Examples 9 and 10 summary, addition of 500 ppm or more
[5] = tested on: R. solanacearum OE1-1 strain; assay type: in vivo, tomato; conditions: 500 ppm D-serine-added contaminated soil
[6] = tested on: total cell count in the soil; assay: Total cell count in soil inoculated with the NKR strain (DNB agar medium); assay type: cell-based; conditions: Example 3; SB soil pH 7.0; sucrose solution with M9 medium (N, P and C source) added on day 13
[7] = Biolog GN plate, compounds in parentheses showed slight color development
[8] = Example 7, SB soil, 5000 ppm substrate, D-serine metabolites
[9] = Example 5, 5000 ppm added after 5 days at 20° C.

Compound	assimilation by the NKR strain (color development of an oxidation-reduction indicator) (NKR strain [1]; [7])	also measured
O=P(O)(O)OCC(O)CO [D, L-α-glycerol phosphate]	no color development	–
NCCO [ethanolamine]	slight color development	total cell count in the soil [2]: remained constant; cell count of the NKR strain vs control section (NKR strain [3]; [8]): markedly declined; also recorded: exhibited control effects; cell count of the OE1-1 strain vs 0 ppm ([4]; ethanolamine 500 ppm sequentially added or 1000 ppm or greater): decrease in the cell counts; cell count of the OE1-1 strain vs 0 ppm ([4]; one-time addition of 500 ppm ethanolamine): did not exhibit sufficient effects; control of R. solanacearum OE1-1 strain [4]: works to control
gentiobiose	–	assimilation by the NKR strain (color development of an oxidation-reduction indicator) (NKR strain [1]): no color development
O=C(O)[C@@H](O)[C@@H](O)[C@H](O)[C@@H](O)C(=O)O [D-saccharic acid]	slight color development	–
COc1ccc2nccc(C(=O)O)c2c1 [quininic acid]	slight color development	–
O=C(O)CCCCCCCCC(=O)O [sebacic acid]	slight color development	–
OC[C@@H](O)[C@@H](O)CO [erythritol]	no color development	–
NC(CO)C(=O)O (racemic) [DL-serine]	–	cell count of the NKR strain in the soil vs no addition (NKR strain [3]; [9]): the effect of cell count control can be observed though the degree of reduction is small
NC(=O)[C@@H](O)[C@@H](O)[C@H](O)[C@@H](O)C=O [glucuronamide]	slight color development	–
O=C(CO)[C@@H](O[C@H]1O[C@H](CO)[C@@H](O)[C@H](O)[C@H]1O)[C@H](O)[C@H](O)CO [turanose]	no color development	–
CCC(O)C(=O)O (stereo not drawn) [α-hydroxybutyric acid]	slight color development	–
O=C(O)CC(=O)O [malonic acid]	slight color development	–
O=C[C@H](O)[C@@H](O)[C@H](O)[C@H](O)COP(=O)(O)O [glucose-6-phosphate]	slight color development	–
CC(=O)C(=O)O [pyruvic acid]	–	cell count of the NKR strain vs control section (NKR strain [3]; [8]): markedly declined; also recorded: exhibited control effects
α-cyclodexrin	no color development	–
NCCC[C@H](N)C(=O)O [L-omithine]	slight color development	–
O=C(O)CCCO [γ-hydroxybutyric acid]	no color development	–
C[C@@H](O)[C@H](N)C(=O)O [L-threonine]	slight color development	–
C=C(CC(=O)O)C(=O)O [itaconic acid]	no color development	–
Cc1cn([C@H]2C[C@H](O)[C@@H](CO)O2)c(=O)[nH]c1=O [thymidine]	no color development	–
NC(CO)C(=O)O [D-serine, 2-amino-3-hydroxypropionic acid]	does not assimilate; also recorded: no color development	total cell count in the soil [2]: almost no changes were observed; cell count of the NKR strain in the soil vs no addition (NKR strain [3]; Example 4, 0.5% D-serine added after 2 days culture at 30° C.): markedly reduced; also recorded: markedly declined; also recorded: very effective; cell count of the NKR strain in the soil vs no addition (NKR strain [3]; [9]): markedly declined; also recorded: very effective; cell count of the NKR strain vs control section (NKR strain [3]; Example 6, 5000 ppm, Kuroboku (black) soil A (field soil)): no effects were observed; cell count of the NKR strain vs control section (NKR strain [3]; Example 6, 5000 ppm, Kuroboku (black) soil B, sandy soils A, B, C, D (all soils excluding Kuroboku soil A)): markedly declined; germination of tomato seeds ([5]; day 4 after sowing): germination of the tomato seeds was observed; growth of young tomato seedlings ([5]; no-addition seedlings all died except one by day 10): grew normally; cell count of the OE1-1 strain vs control ([4]; Example 8, field soil, 5000 ppm): declined markedly; cell count of the OE1-1 strain vs 0 ppm ([4]; field soil, D-serine 500, 1000, 2000 or 5000 ppm): a reduction in the cell count; control of R. solanacearum OE1-1 strain [4]: works to control
O=C(CO)[C@H](O)[C@H](O)[C@H](O)CO [D-piscose]	slight color development	–
OC[C@@H](O)[C@H](O)[C@@H](O)CO [xylitol]	no color development	–
O=c1ccn([C@@H]2O[C@H](CO)[C@@H](O)[C@H]2O)c(=O)[nH]1 [uridine]	slight color development	–

Compound	assimilation by the NKR strain (color development of an oxidation-reduction indicator) (NKR strain [1]; [7])	also measured
OC[C@H]1O[C@@](CO)(O[C@H]2O[C@H](CO)[C@@H](O)[C@H](O)[C@H]2O)[C@@H](O)[C@@H]1O [sucrose]	does not assimilate; also recorded: no color development	total cell counts in the soil [6]: increases in the total cell counts were observed; cell count of the NKR strain in the soil (NKR strain [3]; Example 3, SB soil pH 7.0, sucrose solution with M9 medium added on day 13 after inoculation): transiently increased but then starts to decline; also recorded: after a transient increase, decreased slightly
NCC(=O)N[C@@H](CC(=O)O)C(=O)O [glycyl-L-aspartic acid] (H-Gly-Asp-OH)	no color development	–
O=C[C@H](O)[C@@H](O)[C@H](O[C@@H]1O[C@H](CO)[C@@H](O)[C@H](O)[C@H]1O)[C@H](O)CO [cellobiose]	slight color development	–
N[C@H](CS)C(=O)O [D-cysteine]	–	cell count of the NKR strain vs control section (NKR strain [3]; [8]): markedly declined; also recorded: exhibited control effects
OC[C@H]1O[C@H](O[C@H]2[C@H](O)[C@@H](O)[C@H](O)O[C@@H]2CO)[C@H](O)[C@@H](O)[C@@H]1O [maltose]	no color development	–
O=C(O)/C=C/c1c[nH]cn1 [urocanic acid]	slight color development	–
N[C@@H](CC(=O)O)C(=O)O [L-aspartic acid]	slight color development	–
NCCCCN [putrescine]	slight color development	–
OC[C@H]1O[C@@H](O[C@H]2[C@H](O)[C@@H](O)[C@@H](O)O[C@@H]2CO)[C@H](O)[C@@H](O)[C@H]1O [α-D-lactose]	slight color development	–
glycogen	no color development	–
N[C@@H](CO)C(=O)O [L-serine]	slight color development	cell count of the NKR strain in the soil vs no addition (NKR strain [3]; [9]): remained almost constant; also recorded: almost no effect
CCC(=O)O [propionic acid]	no color development	–
CC(=O)O [acetic acid]	no color development	–
CCC(=O)C(=O)O [α-ketobutyric acid]	slight color development	–
OC[C@H]1O[C@H](OC[C@H]2O[C@H](O[C@]3(CO)O[C@H](CO)[C@@H](O)[C@@H]3O)[C@H](O)[C@@H](O)[C@@H]2O)[C@H](O)[C@@H](O)[C@H]1O [D-raffinose]	no color development	–
C[C@H](N)C(N)=O [alanine amide]	slight color development	–
C[C@@H](N)C(=O)O [D-α-alanine]	no color development	cell count of the NKR strain vs control section (NKR strain [3]; [8]): markedly declined; also recorded: exhibited control effects
CC(O)C(C)O (stereo not shown) [2,3-butanediol]	no color development	–
NCCc1ccccc1 [phenylethylamine]	no color development	–
OC[C@H]1O[C@H](O[C@H]2O[C@H](CO)[C@@H](O)[C@H](O)[C@H]2O)[C@H](O)[C@@H](O)[C@@H]1O [D-trehalose]	slight color development	–
O=P(O)(O)O[C@H]1O[C@H](CO)[C@@H](O)[C@H](O)[C@H]1O [glucose-1-phosphate]	no color development	–
O=C(O)CCC(=O)C(=O)O [α-ketoglutaric acid]	slight color development	–
dextrin	no color development	–
COC1OC(CO)C(O)C(O)C1O [β-methyl-D-glucose]	no color development	–
